Values after ≈ are worked out from the molar mass of the structure shown.

From patent US9000162B2, “5,8-difluoro-4-(2-(4-(heteroaryloxy)-phenyl)ethylamino)quinazolines and their use as agrochemicals” (Dow AgroSciences LLC, priority 2008, dated 2015) come the findings set out here.

Data set [1] has as its system Septoria tritici (SEPTTR). In words: Synergy with pyraclostrobin or epoxiconazole against Septoria blotch. Conditions: alone.
Protocol: (§1) The compound was evaluated in mixtures with pyraclostrobin, or epoxiconazole for protectant and curative activity against wheat leaf rust (Puccinia triticina, PUCCRT), and Septoria blotch (Septoria tritici, SEPTTR).
(§2) The compound was formulated at six rates (8.1, 2.7, 0.9, 0.3, 0.1, 0.03 ppm) and applied to wheat plants alone and in all combinations of it with pyraclostrobin or epoxiconazole using the methods described in section “Fungicidal Activity” above. Plants were inoculated three days before treatment (3DC) or one day after treatment (1DP), incubated in a greenhouse until disease was expressed, and visually rated (reported as % DC Obs) as described above. The expected control was calculated using the Colby equation (Colby, S. R. Calculation of the synergistic and antagonistic response of herbicide combinations. Weeds 1967 15, 20-22.).
(§3) The following equation was used to calculate the expected activity of mixtures containing two active ingredients, A and B: Expected=A+B−(A×B/100)
(§4) A=observed efficacy of active ingredient A at the same concentration as used in the mixture
(§5) B=observed efficacy of active ingredient B at the same concentration as used in the mixture
In data set [2] the test system is Puccinia triticina (PUCCRT). In words: Synergy with pyraclostrobin or epoxiconazole against wheat leaf rust. To be noted: alone.
Protocol: as §1, §2, §3, §4, §5
The subject of data set [3] is Colorado Potato Beetle (Leptinotarsa decemlineata, LPTNDE). The data set can be described thus: Colorado Potato Beetle larvae on sprayed tomato leaves. It counts as in vivo. Conditions: foliar, 72 h, L2 larvae on sprayed tomato foliage, mortality after three days. The protocol: Formulated test compounds were diluted and sprayed onto leaves of tomato plants. When dry, plant foliage was removed from the plant and placed in 8-well agar trays. Five L2 Colorado potato beetle larvae were placed in each well, and the trays were sealed and incubated at 26° C. Mortality was evaluated after three days.

Data set [4] concerns Septoria tritici (SEPTTR). The data set can be described thus: Septoria blotch of wheat foliar protectant test. In kind it is in vivo. Conditions: Zymoseptoria tritici; 200 ppm foliar, inoculated one day after treatment; read-out: Activity against fungal diseases SEPTTR. The procedure, abridged:
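Wheat seedlings (3-10 per pot) were sprayed to wet with formulated compound and inoculated next day with Septoria tritici spores. Plants then had 1 day in a dark dew chamber and 3 days in a lighted one before greenhouse incubation. Severity versus untreated inoculated plants gave percent control, scored *** 80-100%, ** 50-79%, * 0-49%.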

Data set [5] in a line: Mouse oral exposure (gavage), 14 days. Conditions: female, CD-1/Swiss derived albino, in vivo, 5% w/v in 0.5% carboxymethylcellulose, monitored 14 days. On the set-up: species or system mice. The protocol:
The effect on mice of oral exposure was determined for compounds differing only in the number of fluorine substituents on the quinazoline ring, as shown in Table 5. Three CD-1/Swiss derived albino female mice were administered compounds by gavage as a 5% w/v mixture in 0.5% carboxymethylcellulose solution. The animals were monitored for 14 days.

Data set [6] concerns Puccinia recondita tritici (PUCCRT). In words: Leaf rust of wheat foliar protectant test. In kind it is in vivo. Conditions: 200 ppm foliar, inoculated one day after treatment, read-out: Activity against fungal diseases PUCCRT. In short, it runs like this:
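Wheat seedlings (3–8 per pot) were sprayed to wet with formulated compound and inoculated the next day with an aqueous Puccinia recondita tritici spore suspension. Severity was converted to % control versus untreated inoculated plants and rated *** 80–100%, ** 50–79%, * 0–49%.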

In data set [7] the test system is Magnaporthe grisea = Pyricularia oryzae (PYRIOR). In words: whole plant or invertebrate. To be noted: foliar, read-out: Activity against fungal diseases PYRIOR. In kind it is in vivo.
Data set [8] deals with Pseudoperonospora cubensis (PSPECU). The data set can be described thus: Cucumber downy mildew foliar protectant test. It counts as in vivo. Conditions: 200 ppm foliar, inoculated one day after treatment, read-out: Activity against fungal diseases PSPECU. In short, it runs like this:
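Cucumber seedlings, first true leaf 20-80% expanded, were sprayed to wetness with formulated compound and inoculated next day with aqueous sporangia suspension. Severity was converted to percent control versus untreated inoculated plants: ***=80-100%, **=50-79%, *=0-49%.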

Data set [9] concerns Caenorhabditis elegans. To be noted: 10 micrograms per milliliter agar, 24 h at 20° C.
Protocol: The activity of the compounds against Caenorhabditis elegans was determined by dissolving compounds in DMSO, then applying them to petri dishes containing Nematode Growth Medium agar to a final concentration of 10 μg compound per milliliter agar. Escherichia coli bacteria were grown on the plates to provide a food source for the larvae of Caenorhabditis elegans. The bacteria were heat-killed at 65° C. before compounds were added to the plates.
The plates with compound and heat-killed bacteria were infested with 10 microliter drops containing eggs from wild-type Caenorhabditis elegans worms. Adult worms were dissolved in KOH and bleach and washed in Ringers solution to generate the egg suspension. Each compound was screened with approximately 400 eggs, divided between two petri dishes. Egg hatching was evaluated after 24 h at 20° C. Mortality was averaged over the two plates.

As to `Fc1ccc([C@]2(Cn3cncn3)O[C@H]2c2ccccc2Cl)cc1` (racemic) [epoxiconazole], the “% DC Obs” value is listed as 36% in [1] (1DP SEPTTR, 0.3 ppm); 35% in data set [1] (3DC SEPTTR, 0.3 ppm); 0% in data set [2] (1DP PUCCRT, 0.1 ppm); 13% in [2] (3DC PUCCRT, 0.1 ppm).

In [3], `Fc1ccc(F)c2c(NCCc3ccc(Oc4cc(C(F)(F)F)ccn4)cc3)ncnc12` [Compound 6] came in with an LC90 of 12.5 to 50 µg/mL (≈ 28 to 112 µM). In addition, the pest or weed control at 200 ppm in data set [4], in data set [6], in data set [7] and in [8] was 80 to 100% throughout. Besides, in data set [5], the LD50 at 14 days was 100 to 500 mg/kg.

As for `COc1cc(CCNc2ncnc3c(F)ccc(F)c23)ccc1Oc1cc(C(F)(F)F)ccn1` [Compound 15], the pest or weed control at 200 ppm in data set [4], in [6], in data set [7] and in data set [8] was 80 to 100% each time. Moreover, the “% DC Obs” value is 31% in [1] (1DP SEPTTR, 2.7 ppm); 22% in data set [1] (3DC SEPTTR, 0.9 ppm); 33% in data set [2] (1DP PUCCRT, 0.3 ppm); 6% in [2] (3DC PUCCRT, 0.3 ppm); 52% in data set [2] (3DC PUCCRT, 0.9 ppm).

Take `Fc1cc(F)c2ncnc(NCCc3ccc(Oc4cc(C(F)(F)F)ccn4)cc3)c2c1F` [Compound 31]: the LC90 in data set [3] was 50 to 200 µg/mL (≈ 108 to 431 µM). Moreover, the pest or weed control at 200 ppm in data set [4], in data set [6], in data set [7] and in data set [8] was 80 to 100% in each case. In [5], this compound displayed an LD50 at 14 days of more than 500 mg/kg.

On to `N#Cc1cc(Cl)ncc1Oc1ccc(CCNc2ncnc3c(F)ccc(F)c23)cc1` [Compound 125], for which the pest or weed control at 200 ppm in [4], in [6], in data set [7] and in data set [8] was 80 to 100% throughout. This compound showed a Percent mortality in [9] of 0%.

The compound `Fc1ccc(F)c2c(NCCc3ccc(Oc4ccnc(C(F)(F)F)c4)cc3)ncnc12` [Example 11, (5,8-Difluoroquinazolin-4-yl)-{2-[4-(2-trifluoromethylpyridin-4-yloxy)-phenyl]-ethyl}-amine] returned a melting point of 95 to 96 °C.

Take `Fc1cccc2c(NCCc3ccc(Oc4cc(C(F)(F)F)ccn4)cc3)ncnc12` [drawing 198, reference compound]: in [5], the 50% lethal dose (LD50) at 14 days was less than 100 mg/kg.

Consider `COC(=O)N(OC)c1ccccc1COc1ccn(-c2ccc(Cl)cc2)n1` [pyraclostrobin], for which the “% DC Obs” value is 49% in [1] (1DP SEPTTR, 0.3 ppm); 14% in [1] (3DC SEPTTR, 0.1 ppm); 8% in data set [2] (1DP PUCCRT, 0.1 ppm); 4% in [2] (3DC PUCCRT, 0.3 ppm).
